In patent US20130281544A1, “HEPATOPROTECTANT ACTIVITY OF GARCINOL” (priority 2010, published 2013):
Marks after values point to notes of the source that are not given here.

Test system: alcohol (Ethyl alcohol) induced hepatotoxic animal models
Experiment: Serum ALT, AST, ALP and bilirubin in alcohol (ethyl alcohol) induced hepatotoxic animal models
Format: in vivo, Male Wistar Rats
Details: EtOH; for ALP percent change / ALT percent change / AST percent change / Bilirubin percent change / ALP / ALT / AST / Bilirubin: serum; for ALP / ALT / AST / Bilirubin: Mean ± SE
Experimental: Doses of Garcinol (GC) used for the study: 1.25, 2.5, 5, 10 mg/kg p.o.
Standard drug: Silymarin (50 mg/kg) p.o.
Male Wistar rats, weighing 180-200 g, were given 0.5-0.6 ml ethanol orally. […] All rats had regular standard rat chow available throughout the 6-week period. Rats were weighted three times per week. [Guangjin Yuan, Zuojiong Gong *, Xiaorong Zhou, Pin Zhang, Xiaomei Sun and Xi Li. Epigallocatechin-3-Gallate Ameliorates Alcohol-Induced Liver Injury in Rats. Int. J. Mol. Sci. 2006, 7, 204-219]. Blood was collected from the retro-orbital plexus of experimental animals and no anti-coagulant was added. Blood was made to stand at room temperature for 1 hour. It was then centrifuged and clear serum was separated. The serum was then stored for analysis. Reference: (Magari et al., 2004).
(ASPARTATE AMINOTRANSFERASE and ALANINA AMINOTRANSFERASE), Reference: Ritman S, Frankel S, (1957). A colorimetric method for the determination of serum glutamic oxaloacetic and glutamic pyruvic transaminases. American Journal of Clinical Pathology; 28: 56-63.
0.2 ml of serum, collected from test and control samples, was mixed with 1.0 ml of buffer solution and incubated for 60 min at 37° C. in a water bath. After the addition of 1.0 ml of chromogen solution, the samples were kept at room temperature for 20 minutes for the reaction to proceed and 10 ml NaOH was added. The optical density was red at 546 nm after 5 min. To the blank, serum was added after the addition of chromogen solution.
(ALKALINE PHOSPHATASE), Reference: Klaus Walter and Schutt C. (1974). Acid and alkaline phosphatase in serum. In: Methods of Enzymatic Analysis. Eds. Hans Ulrich Bergmeyer, Verlag ChemieWeinheim, Academic press, Inc. New York, 2nd Edition, Vol. 2, pp. 855-64.
Alkaline phosphatase activity measurement is based on the ability of the enzyme to hydrolyze p-nitrophenol phosphate under alkaline conditions. The cleaved product p-nitrophenol is yellow in alkaline solution and is measured at 400-420 nm (Klaus and Schutt, 1974). 2.0 ml of buffered substrate was taken in the tubes ‘Test’ ‘Control’ and ‘Blank’ followed by addition of serum and distilled water (0.1 ml) in ‘Test’ and ‘Blank’ respectively and incubated in a water bath for 30 minutes at 25° C. After incubation sodium hydroxide was added (0.25 N, 2 ml) to all the tubes, which was followed by serum (0.1 ml) to the tubes marked ‘Control’. The yellow colour formed was measured spectrophotometrically against blank at 410 nm.
[BILIRUBIN (BRBN)], Reference: Malloy H T and Evelyn K A (1937). The determination of bilirubin with photoelectric colorimeter. Journal of Biological Chemistry 119: 481-490.
Serum bilirubin was estimated by the method of Malloy and Evelyn (1937). In the two sets of test tubes marked ‘Test’ and ‘Control’, serum (0.2 ml) and distilled water (1.8 ml) were added. To the tubes marked ‘Test’ and ‘Standard’ diazo reagent (0.5 ml) was added. To the test tubes marked ‘Control’ and ‘Blank’ diazo blank (0.5 ml) was added. Finally methanol (2.5 ml) was added into each test tube. The tubes were mixed and allowed to stand for 30 minutes in dark. The tubes were read after 10 minutes at 540 nm.

For `C=C(C)[C@@H](CC=C(C)C)C[C@@]12C[C@@H](CC=C(C)C)C(C)(C)[C@@](CC=C(C)C)(C(=O)C(C(=O)c3ccc(O)c(O)c3)=C1O)C2=O` [Garcinol], the “Average Protection” value (1.25 mg/kg p.o.) was 17.32%, the “Average Protection” value (2.50 mg/kg p.o.) was 29.82% and the “Average Protection” value (5.00 mg/kg p.o.) was 39.39%. For the same molecule, the “Average Protection” value (10.00 mg/kg p.o.) was 40.20%, the ALP percent change (1.25 mg/kg p.o.) was “(14.91) %” and the ALT percent change (1.25 mg/kg p.o.) was “(27.45) %”. For the same molecule, the AST percent change (1.25 mg/kg p.o.) was “(20.20) %”, the Bilirubin percent change (1.25 mg/kg p.o.) was “(6.73) %” and the ALP (1.25 mg/kg p.o.) was 88.68 ± 8.58 μmol min/lt. The ALT (1.25 mg/kg p.o.) was 1320.40 ± 52.20* μmol min/lt, the AST (1.25 mg/kg p.o.) was 858.80 ± 32.64 μmol min/lt and the Bilirubin (1.25 mg/kg p.o.) was 1.94 ± 0.02 mg %. The ALP percent change (2.50 mg/kg p.o.) was “(26.96) %”, the ALT percent change (2.50 mg/kg p.o.) was “(40.63) %” and the AST percent change (2.50 mg/kg p.o.) was “(32.47) %”. The Bilirubin percent change (2.50 mg/kg p.o.) was “(19.23) %”, the ALP (2.50 mg/kg p.o.) was 76.12 ± 4.88* μmol min/lt and the ALT (2.50 mg/kg p.o.) was 1080.50 ± 48.56** μmol min/lt. For the same molecule, the AST (2.50 mg/kg p.o.) was 726.78 ± 46.50* μmol min/lt, the Bilirubin (2.50 mg/kg p.o.) was 1.68 ± 0.04* mg % and the ALP percent change (5.00 mg/kg p.o.) was “(34.44) %”. The ALT percent change (5.00 mg/kg p.o.) was “(51.83) %”, the AST percent change (5.00 mg/kg p.o.) was “(39.58) %” and the Bilirubin percent change (5.00 mg/kg p.o.) was “(31.73) %”. The ALP (5.00 mg/kg p.o.) was 68.32 ± 5.60** μmol min/lt, the ALT (5.00 mg/kg p.o.) was 876.58 ± 76.80** μmol min/lt and the AST (5.00 mg/kg p.o.) was 650.26 ± 56.20** μmol min/lt. For the same molecule, the Bilirubin (5.00 mg/kg p.o.) was 1.42 ± 0.06** mg %, the ALP percent change (10.00 mg/kg p.o.) was “(33.79) %” and the ALT percent change (10.00 mg/kg p.o.) was “(52.15) %”. The AST percent change (10.00 mg/kg p.o.) was “(41.23) %”, the Bilirubin percent change (10.00 mg/kg p.o.) was “(33.65) %” and the ALP (10.00 mg/kg p.o.) was 69.00 ± 4.82** μmol min/lt. For the same molecule, the ALT (10.00 mg/kg p.o.) was 870.80 ± 48.40** μmol min/lt, the AST (10.00 mg/kg p.o.) was 632.48 ± 44.56** μmol min/lt and the Bilirubin (10.00 mg/kg p.o.) was 1.39 ± 0.04** mg %.
